According to BindingDB's records for doi:10.1021/acschembio.6b00217 (Broad Institute, 2016):
pIC50: −log10 of the molar value.

The compounds below were run against Serine/threonine-protein kinase SIK2 (Homo sapiens, UniProt Q9H0K1) (assay: Caliper-based Mobility Shift Assay). Conditions: pH 8.
Method: IC50‘s for HG-9-91-01 derivatives were measured by Caliper-based mobility shift assay (PerkinElmer). […] Reactions were quenched by adding 20 mM EDTA (pH 8) after 1 hr, and percentage of substrate conversion was measured by LabChip EZ Reader II (PerkinElmer).

Serine/threonine-protein kinase SIK2, sequence (Q9H0K1 whole entry): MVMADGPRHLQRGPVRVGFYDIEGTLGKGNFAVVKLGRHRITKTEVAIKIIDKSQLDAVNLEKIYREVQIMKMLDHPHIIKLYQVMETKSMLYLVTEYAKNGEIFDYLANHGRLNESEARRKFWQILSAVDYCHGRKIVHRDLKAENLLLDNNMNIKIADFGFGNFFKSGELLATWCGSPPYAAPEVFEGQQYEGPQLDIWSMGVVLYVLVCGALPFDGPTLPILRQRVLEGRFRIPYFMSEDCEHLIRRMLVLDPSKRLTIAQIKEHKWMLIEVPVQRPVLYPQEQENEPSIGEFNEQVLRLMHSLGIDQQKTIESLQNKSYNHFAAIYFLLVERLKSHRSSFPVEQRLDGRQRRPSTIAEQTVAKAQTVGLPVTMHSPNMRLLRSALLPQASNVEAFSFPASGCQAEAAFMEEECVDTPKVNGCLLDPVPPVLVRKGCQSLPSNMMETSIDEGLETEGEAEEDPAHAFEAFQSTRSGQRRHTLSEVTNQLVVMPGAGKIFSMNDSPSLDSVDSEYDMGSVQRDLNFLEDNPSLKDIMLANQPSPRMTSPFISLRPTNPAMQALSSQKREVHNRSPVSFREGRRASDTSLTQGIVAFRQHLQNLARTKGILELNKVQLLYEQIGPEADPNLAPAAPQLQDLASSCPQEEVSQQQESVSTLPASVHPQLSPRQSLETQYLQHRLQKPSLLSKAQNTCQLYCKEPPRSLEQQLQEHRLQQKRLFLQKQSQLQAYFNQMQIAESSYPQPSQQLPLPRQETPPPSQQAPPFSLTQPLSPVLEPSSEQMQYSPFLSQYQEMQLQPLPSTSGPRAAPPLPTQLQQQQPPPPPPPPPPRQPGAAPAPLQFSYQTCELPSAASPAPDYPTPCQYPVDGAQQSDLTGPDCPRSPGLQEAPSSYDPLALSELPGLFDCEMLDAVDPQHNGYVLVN

SMILES	pIC50
COc1ccc(N2C(=O)N(c3c(C)cccc3C)Cc3cnc(Nc4ccc(C5CCN(C)CC5)cc4OC(C)C)nc32)nc1 [HG-9-91-01 derivative, 7]	< 5.15
COc1ccc(N2C(=O)N(c3c(C)cccc3Cl)Cc3cnc(Nc4ccc(N5CCN(C)CC5)cc4)nc32)nc1 [YKL-05-095 (3)]	8.22
CCOc1cc(C2CCN(C)CC2)ccc1Nc1ncc2c(n1)N(c1ccc(OC)cn1)C(=O)N(c1c(C)cccc1Cl)C2 [HG-9-91-01 derivative, 6]	6.82
COc1ccc(N2C(=O)N(c3c(C)cccc3Cl)Cc3cnc(Nc4ccc(N5CCN(C)CC5)cc4OC)nc32)nc1 [YKL-05-096 (4)]	7.47
